According to US20080221074A1, “Drug Screen and Treatment Method” (priority 2006, published 2008):

System: insulin sensitivity in db/db diabetic mice
Assay: hyperinsulinemic-euglycemic clamp
Format: in vivo
Conditions: oral gavage 14 days; insulin 10 mU/kg/min
Description: Glucose lowering in 8 week old db/db diabetic mice. The hyperinsulinemic-euglycemic clamp protocol was conducted to measure insulin sensitivity in vivo. In this procedure, insulin was administered to raise the insulin concentration while glucose was infused to maintain euglycemia or a fixed, normal blood glucose level (about 180 mg/dL). […] The objective of this protocol was to investigate characterize the capacity of 17α-ethynylandrost-5-ene-3β,7β,17β-triol and androst-5-ene-3β,7β,16α,17β-tetrol to ameliorate systemic insulin resistance and improve whole body glucose disposal in the hyperinsulinemic-euglycemic clamp model. The degree of skeletal muscle and hepatic insulin sensitivity and tissue specific glucose uptake were also assessed. The animals were dosed daily by oral gavage for 14 days. On Day 10 of treatment catheters were implanted in the carotid artery and jugular vein. On the day of the clamp (day 14) the compound was administered at 7:30 am.
Body weight and glucose concentration were assessed on day 0, 7 and day 14 of treatment. On day 14 a euglycemic hyperinsulinemic clamp was performed. Food was removed at 7:30 am at 10:30 a primed continuous infusion of [3-^3H]-glucose (0.05 μCi/min). A baseline blood sample was taken at 12:50 (−10 min) and at 1:00 (0 min) a euglycemic hyperinsulinemic clamp was initiated by administering 10 mU /kg/min of insulin. Glucose was infused at a variable rate to clamp the glucose concentration at ˜180 mg/dl. A bolus of [^14C]-2deoxyglucose was given at the end of the study to assess tissue specific glucose uptake. Plasma ^14C 2-deoxyglucose was assessed at 122, 125, 130, 135, 145 min. […]
Analysis was conducted as follows. Plasma samples were deproteinized with Ba(OH)2 (0.3 N) and ZnSO4 (0.3 N), dried and radioactivity was assessed on scintillation counter (Packard TRICARB 2900 TR, Meriden, Conn.). […] One supernatant was directly counted to determine radioactivity from both [14C] […] A second aliquot was treated with Ba(OH)2 and ZnSO4 to remove ^14C DGP and any tracer incorporated into glycogen and then counted to determine radioactivity from free [^14C]DG(2). [^14C]DGP was calculated as the difference between the two aliquots. […] Rg, an index of tissue specific glucose uptake was calculated as previously described (E.W. Kraegen et al., Am. J. Physiol., 248:E353-E362, 1985). Whole body glucose turnover was calculated as the ratio of the ^3H glucose infusion rate (dpm/kg/min) and arterial plasma glucose specific activity (dpm/mg). Endogenous glucose production was calculated as the difference between the whole body glucose turnover and the exogenous glucose infusion rate (R. N. Bergman et al., Endocr. Rev., 6:45-86, 1985).

C#C[C@]1(O)CC[C@H]2[C@@H]3[C@@H](O)C=C4C[C@@H](O)CC[C@]4(C)[C@H]3CC[C@@]21C [17α-ethynylandrost-5-ene-3β,7β,17β-triol]
glucose infusion rate compared to vehicle control: increased the glucose infusion rate
